The text below walks through data of US20070010671A1, “Novel quinazoline derivatives and methods of treatment related to the use thereof” (priority 2003, published 2007).

The target in the assay is MCH receptor (Homo sapiens, UniProt Q99705). The assay is described as follows: High throughput functional screening FLIPR/FDSS6000: inhibition of MCH-evoked intracellular Ca2+ changes. The following applies: class by percent of control at 10^-7 M or IC50. The class given is cell-based. A digest of the protocol: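 In a kinetic calcium-flux format, compounds were tested at various concentrations against 50 nM MCH. Fluo4-loaded cells expressing a constitutively active, non-endogenous receptor were imaged at 488/530 nm for 290 s after agonist addition.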

With `CN(C)c1nc(N[C@H]2CC[C@@H](CNC(=O)Nc3ccc(Br)cc3Br)CC2)nc2ccccc12` [compound 477], the class was 3 (Class 3: The value of percent of control at 10^−7 M was more than 60% or the value of IC50 was more than 200 nM.). In the case of `CN(C)c1nc(N[C@H]2CC[C@@H](CNC(=O)NCc3ccc(Cl)cc3Cl)CC2)nc2ccccc12` [compound 478, N-(2,4-dichlorobenzyl)-N′-[(cis-4-{[4-(dimethylamino)quinazolin-2-yl]amino}cyclohexyl)methyl]urea], the class is given as 2 (Class 2: The value of percent of control at 10^−7 M was from 40% to 60% or the value of IC50 was from 50 nM to 200 nM.). For `COc1ccc(NC(=O)NC[C@H]2CC[C@@H](Nc3nc(N(C)C)c4ccccc4n3)CC2)c(OC)c1` [compound 479] the value was 3 (Class 3: The value of percent of control at 10^−7 M was more than 60% or the value of IC50 was more than 200 nM.); for `Cc1ccc(C)c(NC(=O)NC[C@H]2CC[C@@H](Nc3nc(N(C)C)c4ccccc4n3)CC2)c1` [compound 481], 3 (Class 3: The value of percent of control at 10^−7 M was more than 60% or the value of IC50 was more than 200 nM.); for `CN(C)c1nc(N[C@H]2CC[C@@H](CNC(=O)Nc3c(Br)cc(F)cc3Br)CC2)nc2ccccc12` [compound 482, N-(2,6-dibromo-4-fluorophenyl)-N′-[(cis-4-{[4-(dimethylamino)quinazolin-2-yl]amino}cyclohexyl)methyl]urea], 1 (Class 1: The value of percent of control at 10^−7 M was less than 40% or the value of IC50 was less than 50 nM.).

For `CN(C)c1nc(N[C@H]2CC[C@@H](CNC(=O)Nc3c(Cl)cccc3Cl)CC2)nc2ccccc12` [compound 483, N-(2,6-dichlorophenyl)-N′-[(cis-4-{[4-(dimethylamino)quinazolin-2-yl]amino}cyclohexyl)methyl]urea], the class is listed as 1 (Class 1: The value of percent of control at 10^−7 M was less than 40% or the value of IC50 was less than 50 nM.). The figure for `CCc1cccc(CC)c1NC(=O)NC[C@H]1CC[C@@H](Nc2nc(N(C)C)c3ccccc3n2)CC1` [compound 484, N-(2,6-diethylphenyl)-N′-[(cis-4-{[4-(dimethylamino)quinazolin-2-yl]amino}cyclohexyl)methyl]urea] is 1 (Class 1: The value of percent of control at 10^−7 M was less than 40% or the value of IC50 was less than 50 nM.); for `CN(C)c1nc(N[C@H]2CC[C@@H](CNC(=O)Nc3ccccc3Cc3ccccc3)CC2)nc2ccccc12` [compound 485] it is 3 (Class 3: The value of percent of control at 10^−7 M was more than 60% or the value of IC50 was more than 200 nM.); for `Cc1ccc(Cl)c(NC(=O)NC[C@H]2CC[C@@H](Nc3nc(N(C)C)c4ccccc4n3)CC2)c1` [compound 486] it is 2 (Class 2: The value of percent of control at 10^−7 M was from 40% to 60% or the value of IC50 was from 50 nM to 200 nM.). Regarding `CN(C)c1nc(N[C@H]2CC[C@@H](CNC(=O)Nc3cc([N+](=O)[O-])ccc3Cl)CC2)nc2ccccc12` [compound 487], the class is 3 (Class 3: The value of percent of control at 10^−7 M was more than 60% or the value of IC50 was more than 200 nM.). The figure for `CN(C)c1nc(N[C@H]2CC[C@@H](CNC(=O)Nc3c(Cl)cccc3C(F)(F)F)CC2)nc2ccccc12` [compound 488] is 1 (Class 1: The value of percent of control at 10^−7 M was less than 40% or the value of IC50 was less than 50 nM.); for `Cc1cccc(Cl)c1NC(=O)NC[C@H]1CC[C@@H](Nc2nc(N(C)C)c3ccccc3n2)CC1` [compound 489] it is 1 (Class 1: The value of percent of control at 10^−7 M was less than 40% or the value of IC50 was less than 50 nM.); for `CN(C)c1nc(N[C@H]2CC[C@@H](CNC(=O)NCc3ccccc3Cl)CC2)nc2ccccc12` [compound 490, N-(2-chlorobenzyl)-N′-[(cis-4-{[4-(dimethylamino)quinazolin-2-yl]amino}cyclohexyl)methyl]urea] it is 1 (Class 1: The value of percent of control at 10^−7 M was less than 40% or the value of IC50 was less than 50 nM.).

On to `CCOC(=O)c1ccccc1NC(=O)NC[C@H]1CC[C@@H](Nc2nc(N(C)C)c3ccccc3n2)CC1` [compound 491], for which the class was 3 (Class 3: The value of percent of control at 10^−7 M was more than 60% or the value of IC50 was more than 200 nM.). For `CCc1cccc(C(C)C)c1NC(=O)NC[C@H]1CC[C@@H](Nc2nc(N(C)C)c3ccccc3n2)CC1` [compound 493, N-[(cis-4-{[4-(dimethylamino)quinazolin-2-yl]amino}cyclohexyl)methyl]-N′-(2-ethyl-6-isopropylphenyl)urea] the value was 1 (Class 1: The value of percent of control at 10^−7 M was less than 40% or the value of IC50 was less than 50 nM.); for `CCc1ccccc1NC(=O)NC[C@H]1CC[C@@H](Nc2nc(N(C)C)c3ccccc3n2)CC1` [compound 494, N-[(cis-4-{[4-(dimethylamino)quinazolin-2-yl]amino}cyclohexyl)methyl]-N′-(2-ethylphenyl)urea], 1 (Class 1: The value of percent of control at 10^−7 M was less than 40% or the value of IC50 was less than 50 nM.). For `CN(C)c1nc(N[C@H]2CC[C@@H](CNC(=O)Nc3cccc(C(F)(F)F)c3F)CC2)nc2ccccc12` [compound 495] the value was 3 (Class 3: The value of percent of control at 10^−7 M was more than 60% or the value of IC50 was more than 200 nM.); for `CN(C)c1nc(N[C@H]2CC[C@@H](CNC(=O)Nc3cc(C(F)(F)F)ccc3F)CC2)nc2ccccc12` [compound 496], 3 (Class 3: The value of percent of control at 10^−7 M was more than 60% or the value of IC50 was more than 200 nM.). Take `Cc1ccc(F)c(NC(=O)NC[C@H]2CC[C@@H](Nc3nc(N(C)C)c4ccccc4n3)CC2)c1` [compound 497]: the class is 3 (Class 3: The value of percent of control at 10^−7 M was more than 60% or the value of IC50 was more than 200 nM.). For `CN(C)c1nc(N[C@H]2CC[C@@H](CNC(=O)Nc3cc([N+](=O)[O-])ccc3F)CC2)nc2ccccc12` [compound 498, N-[(cis-4-{[4-(dimethylamino)quinazolin-2-yl]amino}cyclohexyl)methyl]-N′-(2-fluoro-5-nitrophenyl)urea] the value was 2 (Class 2: The value of percent of control at 10^−7 M was from 40% to 60% or the value of IC50 was from 50 nM to 200 nM.); for `CN(C)c1nc(N[C@H]2CC[C@@H](CNC(=O)NCc3ccccc3F)CC2)nc2ccccc12` [compound 499, N-[(cis-4-{[4-(dimethylamino)quinazolin-2-yl]amino}cyclohexyl)methyl]-N′-(2-fluorobenzyl)urea], 2 (Class 2: The value of percent of control at 10^−7 M was from 40% to 60% or the value of IC50 was from 50 nM to 200 nM.); for `CN(C)c1nc(N[C@H]2CC[C@@H](CNC(=O)Nc3ccccc3I)CC2)nc2ccccc12` [compound 500, N-[(cis-4-{[4-(dimethylamino)quinazolin-2-yl]amino}cyclohexyl)methyl]-N′-(2-iodophenyl)urea], 1 (Class 1: The value of percent of control at 10^−7 M was less than 40% or the value of IC50 was less than 50 nM.). For `Cc1cccc(C(C)C)c1NC(=O)NC[C@H]1CC[C@@H](Nc2nc(N(C)C)c3ccccc3n2)CC1` [compound 501] the value was 1 (Class 1: The value of percent of control at 10^−7 M was less than 40% or the value of IC50 was less than 50 nM.). For `CC(C)c1ccccc1NC(=O)NC[C@H]1CC[C@@H](Nc2nc(N(C)C)c3ccccc3n2)CC1` [compound 502, N-[(cis-4-{[4-(dimethylamino)quinazolin-2-yl]amino}cyclohexyl)methyl]-N′-(2-isopropylphenyl)urea] the value was 1 (Class 1: The value of percent of control at 10^−7 M was less than 40% or the value of IC50 was less than 50 nM.); for `COc1cc([N+](=O)[O-])ccc1NC(=O)NC[C@H]1CC[C@@H](Nc2nc(N(C)C)c3ccccc3n2)CC1` [compound 503], 3 (Class 3: The value of percent of control at 10^−7 M was more than 60% or the value of IC50 was more than 200 nM.). `COc1ccc(C)cc1NC(=O)NC[C@H]1CC[C@@H](Nc2nc(N(C)C)c3ccccc3n2)CC1` [compound 504]: the class is reported as 1 (Class 1: The value of percent of control at 10^−7 M was less than 40% or the value of IC50 was less than 50 nM.).

As to `COc1ccc([N+](=O)[O-])cc1NC(=O)NC[C@H]1CC[C@@H](Nc2nc(N(C)C)c3ccccc3n2)CC1` [compound 505, N-[(cis-4-{[4-(dimethylamino)quinazolin-2-yl]amino}cyclohexyl)methyl]-N′-(2-methoxy-5-nitrophenyl)urea], the class is listed as 2 (Class 2: The value of percent of control at 10^−7 M was from 40% to 60% or the value of IC50 was from 50 nM to 200 nM.). The figure for `Cc1c(NC(=O)NC[C@H]2CC[C@@H](Nc3nc(N(C)C)c4ccccc4n3)CC2)cccc1[N+](=O)[O-]` [compound 506, N-[(cis-4-{[4-(dimethylamino)quinazolin-2-yl]amino}cyclohexyl)methyl]-N′-(2-methyl-3-nitrophenyl)urea] is 1 (Class 1: The value of percent of control at 10^−7 M was less than 40% or the value of IC50 was less than 50 nM.); for `Cc1cccc([N+](=O)[O-])c1NC(=O)NC[C@H]1CC[C@@H](Nc2nc(N(C)C)c3ccccc3n2)CC1` [compound 509, N-[(cis-4-{[4-(dimethylamino)quinazolin-2-yl]amino}cyclohexyl)methyl]-N′-(2-methyl-6-nitrophenyl)urea] it is 1 (Class 1: The value of percent of control at 10^−7 M was less than 40% or the value of IC50 was less than 50 nM.). As for `Cc1ccccc1CNC(=O)NC[C@H]1CC[C@@H](Nc2nc(N(C)C)c3ccccc3n2)CC1` [compound 510, N-[(cis-4-{[4-(dimethylamino)quinazolin-2-yl]amino}cyclohexyl)methyl]-N′-(2-methylbenzyl)urea], the class was 2 (Class 2: The value of percent of control at 10^−7 M was from 40% to 60% or the value of IC50 was from 50 nM to 200 nM.).
